“And” between values parts separate entries of the source, which are not always exact repeats. Identical values can stand only once. Inconclusive results and toxic doses are left out. The calls were made as follows: active = survival T/C of 150% or more; inactive = T/C below 125% in these data.
Tested on: P388 leukemia ip, CD2F1 mice, survival T/C
Assay: NCI In Vivo Anticancer Drug Screen. Data for tumor model P388 Leukemia (intraperitoneal) in CD2F1 (CDF1) mice
Conditions: endpoint: median survival time, higher = longer survival
Outline: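 Mice carrying the transplanted tumor received test compound or vehicle. Survival was recorded in each group, and the value is the treated-group measurement divided by that of the vehicle-treated control group.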

[1] = dose: 50.0 mg/kg/injection, schedule: Q01DX005 (ip), vehicle: Klucel (hydroxypropylcellulose) (HPC)
[2] = dose: 100.0 mg/kg/injection, schedule: Q01DX005 (ip), vehicle: Klucel (hydroxypropylcellulose) (HPC)
[3] = dose: 200.0 mg/kg/injection, schedule: Q01DX005 (ip), vehicle: Klucel (hydroxypropylcellulose) (HPC)
[4] = dose: 6.25 mg/kg/injection, schedule: Q01DX005 (ip), vehicle: saline with Tween-80
[5] = dose: 12.5 mg/kg/injection, schedule: Q01DX005 (ip), vehicle: saline with Tween-80
[6] = dose: 25.0 mg/kg/injection, schedule: Q01DX005 (ip), vehicle: saline with Tween-80
[7] = dose: 200.0 mg/kg/injection, schedule: Q01DX005 (ip), vehicle: saline with Tween-80
[8] = dose: 50.0 mg/kg/injection, schedule: Q01DX005 (ip), vehicle: saline with Tween-80
[9] = dose: 100.0 mg/kg/injection, schedule: Q01DX005 (ip), vehicle: saline with Tween-80
[10] = dose: 60.0 mg/kg/injection, schedule: Q01DX005 (ip), vehicle: saline with Tween-80
[11] = dose: 120.0 mg/kg/injection, schedule: Q01DX005 (ip), vehicle: saline with Tween-80

Measured: T/C

Nc1nc(-c2ccccc2)nc2sc3c(c12)CCCC3
inactive: [1] 104 % of control | [2] 106 % of control | [3] 103 % of control

O=C(CCN1C(=O)c2ccccc2C1=O)C(O)CCN1C(=O)c2ccccc2C1=O (stereo not given)
inactive: [4] 98 % of control | [5] 107 % of control | [6] 100 % of control | [7] 87 % of control

COc1ccc(C(=O)O[C@H]2CC[C@@]3(C)[C@@H]4CC[C@H]5[C@]6(O)C[C@H](O)[C@@]7(O)[C@@H](CN8C[C@@H](C)CC[C@H]8[C@@]7(C)O)[C@]6(O)C[C@@]53OC24O)cc1OC
inactive: dose: 3.12 mg/kg/injection, schedule: Q01DX005 (ip), vehicle: saline 95 % of control | dose: 6.25 mg/kg/injection, schedule: Q01DX005 (ip), vehicle: saline 95 % of control | dose: 12.5 mg/kg/injection, schedule: Q01DX005 (ip), vehicle: saline 97 % of control

COC(=O)C1=C(C(=O)OC)C2(C)C=CC1C1C(OC(C)=O)C(OC(C)=O)C12 (stereo not given)
inactive: dose: 100.0 mg/kg/injection, schedule: Q04DX003 (ip), vehicle: Klucel (hydroxypropylcellulose) (HPC) 105 % of control | dose: 200.0 mg/kg/injection, schedule: Q04DX003 (ip), vehicle: Klucel (hydroxypropylcellulose) (HPC) 108 % of control | dose: 400.0 mg/kg/injection, schedule: Q04DX003 (ip), vehicle: Klucel (hydroxypropylcellulose) (HPC) 107 % of control

Clc1ccc(C2N(Cc3ccccc3)CCC3CCCCN32)cc1Cl (stereo not given)
inactive: dose: 50.0 mg/kg/injection, schedule: Q01DX009 (ip), vehicle: saline with Tween-80 87 % of control | dose: 100.0 mg/kg/injection, schedule: Q01DX009 (ip), vehicle: saline with Tween-80 91 % of control

COC1=C(C)C2CC(=O)OC3CC4C(C)CC(O)C(=O)C4(C)C(C1=O)C32C (stereo not given)
inactive: dose: 0.5 mg/kg/injection, schedule: Q01DX009 (ip), vehicle: saline + alcohol 108 % of control | dose: 1.0 mg/kg/injection, schedule: Q01DX009 (ip), vehicle: saline + alcohol 106 % of control | dose: 2.0 mg/kg/injection, schedule: Q01DX009 (ip), vehicle: saline + alcohol 106 % of control | dose: 4.0 mg/kg/injection, schedule: Q01DX009 (ip), vehicle: saline + alcohol 104 % of control | dose: 8.0 mg/kg/injection, schedule: Q01DX009 (ip), vehicle: saline + alcohol 107 % of control

CCCCN(CC)CCCCCCCCCCN1CCCc2cc(OC)ccc21
inactive: [5] 101 % of control | [6] 111 % of control | [8] 115 % of control | [9] 107 % of control

O=c1[nH]cnc2nc(S(=O)(=O)F)[nH]c12
inactive: [8] 103 % of control | [9] 103 % of control | [7] 103 % of control

C=CCC1(C)C(=O)CCC1=O
inactive: [10] 110 % of control | [11] 102 % of control | dose: 240.0 mg/kg/injection, schedule: Q01DX005 (ip), vehicle: saline with Tween-80 98 % of control

CSc1nc(N)c(C(=O)NC2CCCCC2)s1
inactive: dose: 50.0 mg/kg/injection, schedule: Q01DX009 (ip), vehicle: Klucel (hydroxypropylcellulose) (HPC) 100 % of control | dose: 100.0 mg/kg/injection, schedule: Q01DX009 (ip), vehicle: Klucel (hydroxypropylcellulose) (HPC) 100 % of control | dose: 200.0 mg/kg/injection, schedule: Q01DX009 (ip), vehicle: Klucel (hydroxypropylcellulose) (HPC) 99 % of control

COc1ccc(C(O)c2ccc(OC)c(OC)c2)cc1OC
inactive: dose: 25.0 mg/kg/injection, schedule: Q01DX009 (ip), vehicle: other 100 % of control | dose: 50.0 mg/kg/injection, schedule: Q01DX009 (ip), vehicle: other 100 % of control | dose: 100.0 mg/kg/injection, schedule: Q01DX009 (ip), vehicle: other 96 % of control | dose: 200.0 mg/kg/injection, schedule: Q01DX009 (ip), vehicle: other 89 % of control | dose: 400.0 mg/kg/injection, schedule: Q01DX009 (ip), vehicle: other 89 % of control

Cc1cc(C(=C2C=CC(=Nc3ccc(S(=O)(=O)O)cc3)C=C2)c2ccc(Nc3ccc(S(=O)(=O)O)cc3)cc2)cc(S(=O)(=O)O)c1N
inactive: dose: 50.0 mg/kg/injection, schedule: Q01DX005 (ip), vehicle: suspension in saline 102 % of control | dose: 100.0 mg/kg/injection, schedule: Q01DX005 (ip), vehicle: suspension in saline 99 % of control | dose: 200.0 mg/kg/injection, schedule: Q01DX005 (ip), vehicle: suspension in saline 99 % of control

COc1cc(/C(=C(\CC(=O)O)C(=O)O)c2ccc3c(c2)OCO3)cc(OC)c1OC
inactive: [1] 102 % of control and 103 % of control | [2] 103 % of control and 111 % of control | [3] 99 % of control and 100 % of control

COc1cc(C(=O)Nc2ccc(NC3=NCCN3)cc2)cc(C(=O)Nc2ccc(NC3=NCCN3)cc2)c1
inactive: [4] 102 % of control | [5] 106 % of control | [6] 115 % of control

C1CC2CCC(N3CCCC3)C(C1)C21OCCO1 (stereo not given)
inactive: [10] 93 % of control | [11] 92 % of control

Clc1ccc(OCCBr)cc1
inactive: dose: 50.0 mg/kg/injection, schedule: Q04DX003 (ip), vehicle: saline with Tween-80 105 % of control | dose: 100.0 mg/kg/injection, schedule: Q04DX003 (ip), vehicle: saline with Tween-80 101 % of control | dose: 200.0 mg/kg/injection, schedule: Q04DX003 (ip), vehicle: saline with Tween-80 105 % of control | dose: 400.0 mg/kg/injection, schedule: Q04DX003 (ip), vehicle: saline with Tween-80 99 % of control

Cc1oc2c(c(C)nn2-c2ccccc2)c(=O)c1Cl
inactive: [1] 92 % of control | [2] 106 % of control | [3] 108 % of control

Cc1ccc(C(=O)Nc2ccc(N(CCCl)CCCl)cc2)cc1
inactive: dose: 6.25 mg/kg/injection, schedule: Q01DX001 (ip), vehicle: Klucel (hydroxypropylcellulose) (HPC) 102 % of control | dose: 12.5 mg/kg/injection, schedule: Q01DX001 (ip), vehicle: Klucel (hydroxypropylcellulose) (HPC) 108 % of control | dose: 25.0 mg/kg/injection, schedule: Q01DX001 (ip), vehicle: Klucel (hydroxypropylcellulose) (HPC) 110 % of control

O=CNC(NC=O)NC=O
inactive: dose: 25.0 mg/kg/injection, schedule: Q01DX009 (ip), vehicle: saline 109 % of control | dose: 50.0 mg/kg/injection, schedule: Q01DX009 (ip), vehicle: saline 97 % of control | dose: 100.0 mg/kg/injection, schedule: Q01DX009 (ip), vehicle: saline 105 % of control | dose: 200.0 mg/kg/injection, schedule: Q01DX009 (ip), vehicle: saline 104 % of control

C/C(=N\N/C=N/S(=O)(=O)c1ccccc1)c1ccccc1
inactive: [1] 88 % of control | [2] 89 % of control | [3] 89 % of control

COc1ccc(CCNC(=O)CC2CC(=O)N(CCc3ccc(OC)c(OC)c3)C(=O)C2)cc1OC
inactive: [1] 101 % of control | [2] 98 % of control | [3] 101 % of control

CCOC(=O)Cn1/c(=N/N=C(\C)c2ccc([N+](=O)[O-])o2)sc2cc(Cl)ccc21
inactive: dose: 60.0 mg/kg/injection, schedule: Q01DX005 (ip), vehicle: Klucel (hydroxypropylcellulose) (HPC) 102 % of control | dose: 120.0 mg/kg/injection, schedule: Q01DX005 (ip), vehicle: Klucel (hydroxypropylcellulose) (HPC) 106 % of control and 96 % of control | dose: 240.0 mg/kg/injection, schedule: Q01DX005 (ip), vehicle: Klucel (hydroxypropylcellulose) (HPC) 101 % of control and 91 % of control

COC(=O)C1CC(C(=O)c2ccccc2)N2C=CC=C(C#N)C12 (stereo not given)
inactive: dose: 4.38 mg/kg/injection, schedule: Q01DX005 (ip), vehicle: Klucel (hydroxypropylcellulose) (HPC) 101 % of control | dose: 8.75 mg/kg/injection, schedule: Q01DX005 (ip), vehicle: Klucel (hydroxypropylcellulose) (HPC) 91 % of control | dose: 17.5 mg/kg/injection, schedule: Q01DX005 (ip), vehicle: Klucel (hydroxypropylcellulose) (HPC) 101 % of control

From PubChem BioAssay AID330 (DTP/NCI, 2004)
